Marks after values point to notes of the source that are not given here.
Key:
Type in all cases: in vivo, rat
collagen IV = test: Glomerular immunohistochemical staining for collagen IV, quantitative image analysis; conditions: 12 weeks of treatment, kidney sections
Description: (§1) Animals were killed by an overdose of anesthetic and kidneys were removed and weighed. One kidney was fixed in 10% formalin buffer and the second kidney was quick-frozen in liquid nitrogen and stored at −70° C. Kidney tissue samples were sectioned and processed into paraffin blocks for light microscopy. For labeling of collagen IV, renal cortical segments (5 μm) were incubated overnight at 4° C. with rabbit anti-mouse collagen IV antibody (dilution 1/500 ) obtained from Chemicon International Inc. (Temecula, Calif.). A primary monoclonal mouse antibody ( 1/200 dilution; Dako Corporation, Carpenteria, Calif.) was used to label proliferating cell nuclear antigen (PCNA). […] Nonspecific staining was assessed by replacing the primary antibody with phosphate buffered saline. […] Immunochemical staining for collagen IV and PCNA quantitatively was done with a SAMBA 4000 image analyzer (Image Products International, Chantilly, Va.) using specialized computer software (Immuno-Analysis, version 4.1, Microsoft, Richmond, Wash.), a color video camera and a Compaq computer. […] Ten high power fields (×400) were assessed for staining density or positively marked cells for ED-1. […] Staining intensity of positive areas was also assessed (mean optical density) and a mean quick score was then calculated (mean optical density×labeling index).

PAN-nephropathic rats [1] = test: Metabolic cage measurements (24-hour urine, intake, plasma) in PAN-nephropathic rats
Description: A total of thirty-five, male Sprague Dawley rats (approximately 290 grams) were used. Rats were housed in the University of Pittsburgh Medical Center animal care facility (temperature, 22° C.; light cycle, 12 hours; relative humidity, 55%). Animals were fed Pro Lab RMH 3000 rodent diet (PMI Nutrition Inc., St Louis, Mo.) and were given water ad libitum. Institutional guidelines for animal welfare were followed, and the University of Pittsburgh Institutional Animal Care and Use Committee approved experimental protocols.
Before initiating treatment, and 3, and 6 and 11 weeks into the treatments, animals were placed in metabolic cages and allowed to acclimatize for two days before conducting the 24-hour measurements of urine volume, food and water intake and urinary sodium, potassium, creatinine, and protein excretion. Tail vein blood samples were also taken for measurement of plasma sodium, potassium, albumin and creatinine. Plasma and urine samples were analyzed for sodium and potassium concentrations using a flame photometer (Model IL-943; Instrumentations Laboratory Inc., Lexington, Ma.) and for creatinine concentrations using a creatinine analyzer (Creatinine Analyzer 2, Beckman Instrument, Inc., Fullerton Calif., USA). Total urine proteins were measured by a spectrophotometric assay using bicinchoninic acid reagent (Pierce; Rockford, Ill.) and a modification of Lowry method. Lowry, O. H., et al., J. Biol. Chem. 193: 265 (1951), the disclosure of which is incorporated herein by reference.
(§2) After baseline metabolic parameters were measured, animals were randomly assigned to receive subcutaneous saline (3 ml/kg; Control group, n=9) or puromycin aminonucleoside (PAN) (75 mg/kg; drug-induced nephrotoxic animals, n=26). PAN is a drug widely used to produce drug-induced nephrotoxicity in laboratory animals. Grond, J., et al., Contributions to Nephrology 60:83 (1988), the disclosure of which is incorporated herein by reference. Injections of PAN (20 mg/kg) were repeated after 2, 4, 8 and 10 weeks of treatment. Three hours after the initial injections, control animals were implanted with osmotic minipumps (model 2ML4, Alza, Palo Alto, Calif.) containing vehicle (polyethylene glycol 400, 2.5 μl/hour), whereas PAN-treated animals were implanted with osmotic minipumps containing either vehicle (PAN group, n=13) or 2-hydroxyestradiol (10 μg/kg/hour, PAN+2OHE group, n=13). Assignment to the PAN and PAN+2OHE groups was random. Six animals in the PAN group and 2 animals in the PAN+2OHE group died during the treatment, and these animals were not used in the final data analysis.

PAN-nephropathic rats [2] = test: Acute measurements of renal hemodynamics and excretory function at 12 weeks; conditions: 12 weeks of treatment
Description: as §2
At 12 weeks into treatment, animals were anesthetized with pentobarbital (45 mg/kg i.p.) and instrumented for measurements of renal hemodynamics and excretory function. Two polyethylene (PE)-50 catheters were inserted into left jugular vein for delivery of supplemental anesthetics and saline infusion (50 μl/min), respectively. Another PE-50 catheter was inserted into left carotid artery and connected to a blood-pressure analyzer (Micro-Med., Inc., Louisville, Ky.) for continuous measurement of blood pressure and heart rate. A PE-10 catheter was inserted into the left ureter to facilitate collection of urine, and a flow probe (Model 1RB; Transonic Systems, Inc., Ithaca, N.Y.) was placed on the left renal artery for determination of renal blood flow, which was used to calculate renal vascular resistance. Next, an infusion of ^14C-inulin (0.035 μCi/20 μl saline/min) was initiated and after 60 minutes, two 30-minute clearance periods were conducted. A mid-point blood sample (300 μl) was collected and plasma and urine ^14C-inulin radioactivity was measured. Renal clearance of ^14C-inulin was calculated as an estimate of glomerular filtration rate.

[3] = tested on: proliferating cell nuclear antigen (PCNA); test: Glomerular immunohistochemical staining for PCNA, quantitative image analysis; conditions: 12 weeks of treatment, kidney sections
Description: as §1

PAN-treated rats = test: Mortality during 12-week treatment of PAN-treated rats
Description: as §2

PAN-nephropathic rats [4] = test: Plasma testosterone radioimmunoassay; conditions: 12 weeks of treatment, male rats
Description: An aliquot of mid-point blood sample drawn during the first clearance period was used for testosterone measurements. Plasma testosterone levels were determined by radioimmunoassay using a commercial kit provided by ICN Biomedicals, Inc. (Costa Mesa, Calif.) according to the protocol of the manufacturer.

ED1 positive cells = test: Immunohistochemical staining for ED1 positive cells (macrophage infiltration) in glomeruli and interstitium; conditions: 12 weeks of treatment, kidney sections
Description: as §1

C[C@]12CC[C@@H]3c4cc(O)c(O)cc4CC[C@H]3[C@@H]1CC[C@@H]2O [2-OHE, 2-hydroxyestradiol]
Glomerular collagen IV, labeling index (in words, FIGS. 5 and 6) (collagen IV): significantly reduced the labeling index of glomerular immunoreactive collagen IV | Body Weight (PAN-nephropathic rats [1]; 0 wks of treatment (baseline)): 291 ± 5 g | Creatinine Excretion (PAN-nephropathic rats [1]; 0 wks of treatment (baseline)): 13.0 ± 1.0 mg/day | FE - K+ (fractional excretion of potassium) (PAN-nephropathic rats [1]; 0 wks of treatment (baseline)): 11.6 ± 1.4% | FE - Na+ (fractional excretion of sodium) (PAN-nephropathic rats [1]; 0 wks of treatment (baseline)): 0.18 ± 0.03% | Fluid Intake (PAN-nephropathic rats [1]; 0 wks of treatment (baseline)): 5.37 ± 0.25 mL/h/kg | Food Intake (PAN-nephropathic rats [1]; 0 wks of treatment (baseline)): 76 ± 2 g/kg/day | Plasma Cholesterol (PAN-nephropathic rats [1]; 0 wks of treatment (baseline)): 51.2 ± 2.2 mg/dL | Potassium Excretion (PAN-nephropathic rats [1]; 0 wks of treatment (baseline)): 7.54 ± 0.52 mEq/day/kg | Sodium Excretion (PAN-nephropathic rats [1]; 0 wks of treatment (baseline)): 3.35 ± 0.18 mEq/day/kg | Urine Volume (PAN-nephropathic rats [1]; 0 wks of treatment (baseline)): 1.68 ± 0.167 mL/h/kg | Creatinine Excretion (PAN-nephropathic rats [1]; 3 wks of treatment): 10.9 ± 0.7 mg/day | FE - K+ (fractional excretion of potassium) (PAN-nephropathic rats [1]; 3 wks of treatment): 32.1 ± 4.4 % | FE - Na+ (fractional excretion of sodium) (PAN-nephropathic rats [1]; 3 wks of treatment): 0.50 ± 0.10% | Fluid Intake (PAN-nephropathic rats [1]; 3 wks of treatment): 7.04 ± 0.667 mL/h/kg | Food Intake (PAN-nephropathic rats [1]; 3 wks of treatment): 75 ± 4 g/kg/day | Plasma Cholesterol (PAN-nephropathic rats [1]; 3 wks of treatment): 315 ± 39.3 mg/dL | Potassium Excretion (PAN-nephropathic rats [1]; 3 wks of treatment): 12.3 ± 0.61 mEq/day/kg | Sodium Excretion (PAN-nephropathic rats [1]; 3 wks of treatment): 5.76 ± 0.57 mEq/day/kg | Urine Volume (PAN-nephropathic rats [1]; 3 wks of treatment): 3.62 ± 0.292 mL/h/kg | Creatinine Excretion (PAN-nephropathic rats [1]; 6 wks of treatment): 9.8 ± 0.7 mg/day | FE - K+ (fractional excretion of potassium) (PAN-nephropathic rats [1]; 6 wks of treatment): 17.3 ± 2.5 % | FE - Na+ (fractional excretion of sodium) (PAN-nephropathic rats [1]; 6 wks of treatment): 0.34 ± 0.04% | Fluid Intake (PAN-nephropathic rats [1]; 6 wks of treatment): 5.92 ± 0.5 mL/h/kg | Food Intake (PAN-nephropathic rats [1]; 6 wks of treatment): 60 ± 5 g/kg/day | Plasma Cholesterol (PAN-nephropathic rats [1]; 6 wks of treatment): 248.3 ± 19.3 mg/dL | Potassium Excretion (PAN-nephropathic rats [1]; 6 wks of treatment): 9.17 ± 0.63 mEq/day/kg | Sodium Excretion (PAN-nephropathic rats [1]; 6 wks of treatment): 4.21 ± 0.43 mEq/day/kg | Urine Volume (PAN-nephropathic rats [1]; 6 wks of treatment): 2.99 ± 0.292 mL/h/kg | Creatinine Excretion (PAN-nephropathic rats [1]; 11 wks of treatment): 12.8 ± 2.8 mg/day | FE - K+ (fractional excretion of potassium) (PAN-nephropathic rats [1]; 11 wks of treatment): 29.7 ± 1.7 % | FE - Na+ (fractional excretion of sodium) (PAN-nephropathic rats [1]; 11 wks of treatment): 0.37 ± 0.04% | Fluid Intake (PAN-nephropathic rats [1]; 11 wks of treatment): 6.12 ± 0.583 mL/h/kg | Food Intake (PAN-nephropathic rats [1]; 11 wks of treatment): 58 ± 6 g/kg/day | Plasma Cholesterol (PAN-nephropathic rats [1]; 11 wks of treatment): 340.6 ± 27.3 mg/dL | Potassium Excretion (PAN-nephropathic rats [1]; 11 wks of treatment): 8.36 ± 1.25 mEq/day/kg | Sodium Excretion (PAN-nephropathic rats [1]; 11 wks of treatment): 3.12 ± 0.66 mEq/day/kg | Urine Volume (PAN-nephropathic rats [1]; 11 wks of treatment): 3.44 ± 0.312 mL/h/kg | Creatinine clearance (in words, FIGS. 1B and 1C) (PAN-nephropathic rats [1]; chronic treatment): attenuated the decline in creatinine clearance caused by PAN | Plasma creatinine levels (in words, FIG. 1A) (PAN-nephropathic rats [1]; chronic treatment): attenuated PAN-induced increases in plasma creatinine levels | UPE corrected for creatinine clearance (UPE/CrCl; in words, FIG. 2B) (PAN-nephropathic rats [1]; chronic treatment): this effect became even more significant | Urinary protein excretion (UPE; in words, FIG. 2A) (PAN-nephropathic rats [1]; chronic treatment): reduced PAN-induced increases in urinary protein excretion | Blood pressure (in words) (PAN-nephropathic rats [2]): abolished PAN-induced changes in blood pressure | GFR, inulin clearance (in words) (PAN-nephropathic rats [2]): significantly attenuated PAN-induced changes in GFR | Hematocrit (PAN-nephropathic rats [2]): 30 ± 3% | Left Kidney (PAN-nephropathic rats [2]): 2.34 ± 0.09 g | Glomerular Filtration Rate (PAN-nephropathic rats [2]; 14C-inulin clearance): 0.54 ± 0.06^b ml/min/g kidney | Body Weight (PAN-nephropathic rats [2]; acute experiment): 353 ± 15 | Mean Blood Pressure (PAN-nephropathic rats [2]; anesthetized): 138.2 ± 4^b mm Hg | Renal Blood Flow (PAN-nephropathic rats [2]; anesthetized): 2.80 ± 0.18 ml/min/g kidney | Renal Plasma Flow (PAN-nephropathic rats [2]; anesthetized): 1.96 ± 0.12 ml/min/g kidney | Renal Vascular Resistance (PAN-nephropathic rats [2]; anesthetized): 58.5 ± 4.5 mm Hg/ml/min/g kid | Urine Volume (PAN-nephropathic rats [2]; anesthetized): 3.33 ± 0.26 μl/min/g kidney | Labeling index of glomerular immunoreactive PCNA (in words, FIG. 3) [3]: significantly reduced the labeling index of glomerular immunoreactive PCNA | Reduction of PAN-induced mortality (PAN-treated rats; 2-hydroxyestradiol 10 μg/kg/hour by osmotic minipump): 66% | Animals died during the treatment (PAN-treated rats; n=13 per group): 2 animals | Plasma testosterone levels (PAN-nephropathic rats [4]): 0.91 ± 0.22 ng/mL | Number of ED1 positive cells in glomeruli and interstitium (in words, FIG. 4) (ED1 positive cells): significantly (P<0.001) reduced the number of inflammatory cells in glomeruli and in the interstitium

Source: US20040082558A1, “Administration of estradiol metabolites for inhibition of drug-induced nephrotoxicity” (priority 2002, published 2004)
